# Test results published in patent US12331121B2, “Efflux pump-cancer antigen multi-specific antibodies and compositions, reagents, kits and methods related thereto” (William Robert Arathoon Living Trust Dated August 29, 2016, priority 2019, dated 2025).
# What was measured:
# [1] = tested on: human red blood cells (RBCs); assay: Binding to human erythrocytes; details: FIG. 22A; in contrast to anti-CD47 5F9
# [2] = tested on: multidrug resistant N6ADR cells; assay: N6ADR tumors in mice (Example 5); type: in vivo
# Protocol: Tumors formed by injecting multidrug resistant N6ADR cells in mice were treated by administering the anti-MDR1 antibody 15D3, with or without paclitaxel or administering KbisP1.1 with or without paclitaxel.
# [3] = tested on: NALM6 ADR cells
# Text: Cells: NALM6 (ATCC) and NALM6 ADR (ATCC), B cell precursor lymphoblastic leukemia cell lines used in this study. NALM6 ADR is a multidrug resistant cell line derived from NALM6 cells.
# Mice: Sixty-five 5-6-weeks-old female SCID-Beige mice (Charles River) were used in this study.
# Inoculation-2×10^6 cells diluted in PBS:Matrigel (1:1) were subcutaneously injected using a 27G insulin syringe into fifty anesthetized 5-6-week-old female SCID-Beige mice under sterile conditions.
# NALM6 ADR subcutaneous tumors: Mice were randomized into nine groups of five mice each—(i) Control isotype IgG1 15 mg/kg, (ii) Control isotype IgG1 15 mg/kg and 5 mg/kg of paclitaxel, (iii) Control isotype IgG1 15 mg/kg and 20 mg/kg of paclitaxel, (iv) BisP1.1 15 mg/kg, (v) BisP1.1 15 mg/kg and 5 mg/kg of paclitaxel, (vi) BisP1.1 15 mg/kg and 20 mg/kg of paclitaxel (vii) Valspodar 20 mg/kg (viii) Valspodar 20 mg/kg and 5 mg/kg of paclitaxel and (ix) Valspodar 20 mg/kg and […]. Antibody, Valspodar and paclitaxel were dosed intraperitoneally twice a week for four consecutive weeks. Antibody/valspodar were injected at least 4 hours prior to paclitaxel injection. Paclitaxel preparation: Since paclitaxel is poorly soluble, a master stock of 50 mg/ml was prepared in absolute ethanol:Kolliphor (1:1). Prior to injection the stock was diluted to recommended doses of 5 mg/kg or 20 mg/kg with PBS maintaining a ratio of (1:16).
# Measurements: Tumor measurements were done thrice a week using a calibrated Vernier Caliper and tumor volume calculated as per the formula ½*L*S*S where L is the long axis and s is the short axis of the tumor. Body weights were recorded before treatment started and were continuously monitored throughout the study. Animal survival was evaluated from the first day of treatment until death. To avoid suffering, mice were euthanized when turning moribund according to the above-mentioned predefined criteria: rapid weight loss, loss of ability to ambulate, labored respiration, or inability to drink or feed.
# Statistics: Tumor volume and body weights were compared between different experimental groups using exact one-way analysis of variance (ANOVA). Kaplan-Meier survival curves were compared between different treatment groups using the log-rank (Mantel-Cox) test. Statistical analyses were performed using Graph Pad Prism (GraphPad, San Diego, CA, USA) software. The level of significance was set at p<0.05 for all analyses.
# [4] = tested on: N6ADR cells; assay: Paclitaxel sensitization of N6ADR cells in vitro; type: cell-based, human; details: FIG. 5, 6; compared to chemo only
# Protocol: HEK 293T, MCF-7, N6ADR and SKNF7 cell lines expressing Pgp were obtained from the American Type Culture Collection. N6/ADR cells is also referred to as NALM6/ADR cells. All cell lines and lines derived from them were maintained in RPMI 1640 or DMEM supplemented with up to 10% fetal bovine serum (Sigma), nonessential amino acids, and 2 mmol/L L-glutamine at 37° C. and 5% CO2 in a humidified incubator (unless otherwise indicated). Cells were used as supplied or were modified to overexpress (Ox) Pgp or were subject to having Pgp expression knocked down (KD) with lentiviral-mediated short hairpin RNA or knock out (KO) of the functional CD47 gene by CRISPR/Cas-mediated knock out technology essentially as described (Cong, L. et al. (2013) Science 339, 819-823). For vincristine and paclitaxel IC50 determination, cells were plated in normal growth medium and allowed to adhere overnight. Paclitaxel or vincristine (Sigma) were added in a dilution series and any modulators were added within ranges of 0 to 500 μM/L. Cell viability was measured 72 h later using the Celltiter-Glo Luminescent Cell Viability Assay (Promega).
# FIG. 5 and FIG. 6A-6C illustrate the enhanced killing of cells, by the antineoplastic agent paclitaxel, when cells are bound by the 15D3.aCD47:MRK16 bispecific antibody (highlighted with arrows).
# [5] = tested on: 293 KT14-KO and KPB1-KD cells; assay: FACS binding to cells with only one target present; set-up: species or system human; details: CD47 knock-out or Pgp knock-down 293T cells, FIG. 4
# Protocol: In FIG. 4A-4B, the binding of the bispecific antibody is shown by FACS analysis against a variety of cell lines. The first scan (left panel in FIG. 4A and FIG. 4B) illustrates binding of the antibody to cells co-expressing both targets, (Pgp and CD47). […] FIG. 4A-4B further show binding with titrated antibody concentrations of 600 nM, 200 nM, 66 nM, 7.4 nM and 2 nM, with the signal measured from isotype and no antibody control also provided. The respective antibody concentrations are indicated in the left panel of FIG. 4A and FIG. 4B, and the measured signal from these different concentrations are generally overlapping in the middle and right panels of FIGS. 4A and 4B. FIG. 4A and FIG. 4B represent results obtained from two different batches of antibody.
# [6] = tested on: cynomolgus RBCs; assay: Binding to cynomolgus erythrocytes; details: FIG. 22B; in contrast to anti-CD47 5F9
# [7] = tested on: HeyT30 cells; assay: HeyT30 tumors in mice; type: in vivo; details: FIG. 19
# Text: The BisP1.1 bispecific antibody was efficacious against two additional multidrug resistant (MDR) cancer cell lines in xenograft studies. The A2780ADR MDR cancer cell line expresses both CD47 and ABCB1. The HeyT30 MDR cancer cell line also expresses both CD47 and ABCB1 but at a lower level compared to A2780ADR cells (FIGS. 16 and 17). Both the A2780ADR and the HeyT30 cell lines are of ovarian origin. PE-conjugated, commercially available anti-MDR1 and anti-CD47 reagent antibodies were used; for MDR1, Biolegend Cat. No. 348606 and, CD47, Biolegend Cat. No. 323108.
# A2780ADR MDR cancer cell line and HeyT30 MDR cancer cell line were injected into mice according to protocols described in Example 3. Mice were treated with BisP1.1 bispecific antibody with or without paclitaxel.
substance,measurement,setting,value
"KBisP1.1: bispecific anti-MDR1/anti-CD47 antibody: 15D3 heavy chain, 5F9 (KT14) heavy chain, common MRK16 light chain, human IgG1",binding to human erythrocytes,[1],no significant binding
same,chemo-sensitization of N6ADR tumor to paclitaxel,[2]; FIG. 21,dose-dependent
same,efficacy against N6ADR cell tumors,"[2]; with or without paclitaxel, FIG. 20",more efficacious than the 15D3 antibody
same,"tumor growth, agent alone",[3]; 15 mg/kg i.p. twice a week,strong inhibition of tumor growth
same,tumor growth in combination with paclitaxel,[3]; BisP1.1 15 mg/kg or valspodar 20 mg/kg with paclitaxel 5 or 20 mg/kg,significantly reduced tumor growth
same,survival,"[3]; valspodar with paclitaxel 20 mg/kg, BisP1.1 alone or plus paclitaxel, compared to control",prolonged survival
same,sensitivity of N6ADR cells to paclitaxel,[4],enhanced
same,FACS binding when only one of the targets is present,[5],does not show significant binding
same,FACS binding when only one of the targets is present,[5]; listed as HC-15D3:HC-5F9:LC-MRK16,significantly reduced binding
same,binding to cynomolgus erythrocytes,[6],no significant binding
same,tumor volume,[7]; higher concentration of the antibody,efficacious with and without paclitaxel
same,tumor volume,[7]; lower concentration of the antibody,efficacious in reducing HeyT30 MDR cancer cell tumor volume with paclitaxel
